Assay [1] deals with MDBK441. Briefly: Compound was tested for inhibition of the growth of Eimeria tenella in MDBK 441 cell line up to concentration 25 uM; no inhibition. Conditions: Bos taurus. The class given is functional, cell-based.
Assay [2] has as its system MDBK441. Nature of the assay: Compound was tested for inhibition of the growth of Eimeria tenella in MDBK 441 cell line. The class given is functional. The settings on record: Bos taurus.

In brackets after ≈: the same amount, converted by molar mass. Activity calls are given as the source filed them. The calls are words filed in the database; no cut-off is given here.

`COC(=O)CCCC[C@@H]1[C@H]2[C@H](C)[C@@H](O)C(C)C[C@]2(C)CC[C@@H]1C` (stereo partly drawn): the MIC entry in assay [1] was “inactive”.
As to `COC(=O)/C=C/C=C/[C@@H]1[C@H]2[C@H](C)[C@@H](O)C(C)C[C@]2(C)C=C[C@@H]1C` (stereo partly drawn), in assay [2], the MIC worked out at 1.5 µM (≈ 0.478 µg/mL).
In the case of `CC1C[C@]2(C)C=C[C@H](C)[C@H](/C=C/C=C/C(=O)O)[C@H]2[C@H](C)[C@H]1O` (stereo partly drawn), in assay [1], the MIC entry was “inactive”.

Values taken from ChEMBL document CHEMBL1130699, “Coprophilin: an anticoccidial agent produced by a dung inhabiting fungus” (1998).
